Measurements from the supplement of paper PMC10307832.

Assays:
Experiment in all cases: relative viability (nuclei count vs DMSO), 5 days (fraction); higher = more cells survive
FG-4592 + Dasatinib = compound: Cc1nc(C(=O)NCC(=O)O)c(O)c2ccc(Oc3ccccc3)cc12 [FG-4592] + Cc1nc(Nc2ncc(C(=O)Nc3c(C)cccc3Cl)s2)cc(N2CCN(CCO)CC2)n1 [Dasatinib] (partner 0.075 µM)
Method in brief: (§1)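 Relative viability divides the nuclei count in treated wells by that in vehicle wells. Lung cancer cell lines were seeded in 1536-well plates, dosed by pin tool the next day, and fixed and stained after 5 days in one step with final 0.05% Triton X-100, 1% formaldehyde and 1 ug/ml Hoechst. Dosing was a single drug or a fixed anchor-drug dose plus five library-drug doses (not always all listed) in √10 steps, and values are medians of duplicate plates imaged at 4×.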

IU1-47 + OSI-027 = compound: CC1=CC(=C(N1C2=CC=C(C=C2)Cl)C)C(=O)CN3CCCCC3 [IU1-47] + COc1cccc2cc(-c3nc([C@H]4CC[C@H](C(=O)O)CC4)n4ncnc(N)c34)[nH]c12 [OSI-027] (partner 0.5 µM)
Method in brief: as §1

IU1-47 + Pictilisib = compound: CC1=CC(=C(N1C2=CC=C(C=C2)Cl)C)C(=O)CN3CCCCC3 [IU1-47] + CS(=O)(=O)N1CCN(Cc2cc3nc(-c4cccc5[nH]ncc45)nc(N4CCOCC4)c3s2)CC1 [Pictilisib] (partner 1 µM)
Method in brief: as §1

FG-4592 + Lapatinib = compound: Cc1nc(C(=O)NCC(=O)O)c(O)c2ccc(Oc3ccccc3)cc12 [FG-4592] + CS(=O)(=O)CCNCc1ccc(-c2ccc3ncnc(Nc4ccc(OCc5cccc(F)c5)c(Cl)c4)c3c2)o1 [Lapatinib] (partner 2 µM)
Method in brief: as §1

Cell Line	relative viability (FG-4592 + Dasatinib; first compound 0.08 µM)	relative viability (FG-4592 + Dasatinib; first compound 0.253 µM)	relative viability (FG-4592 + Dasatinib; first compound 0.8 µM)	relative viability (FG-4592 + Dasatinib; first compound 2.53 µM)	relative viability (FG-4592 + Dasatinib; first compound 8 µM)	relative viability (IU1-47 + OSI-027; first compound 0.08 µM)	relative viability (IU1-47 + OSI-027; first compound 0.253 µM)	relative viability (IU1-47 + OSI-027; first compound 0.8 µM)	relative viability (IU1-47 + OSI-027; first compound 2.53 µM)	relative viability (IU1-47 + OSI-027; first compound 8 µM)	relative viability (IU1-47 + Pictilisib; first compound 0.08 µM)	relative viability (IU1-47 + Pictilisib; first compound 0.253 µM)	relative viability (IU1-47 + Pictilisib; first compound 0.8 µM)	relative viability (IU1-47 + Pictilisib; first compound 2.53 µM)	relative viability (IU1-47 + Pictilisib; first compound 8 µM)	relative viability (FG-4592 + Lapatinib; first compound 0.08 µM)	relative viability (FG-4592 + Lapatinib; first compound 0.253 µM)	relative viability (FG-4592 + Lapatinib; first compound 0.8 µM)	relative viability (FG-4592 + Lapatinib; first compound 2.53 µM)	relative viability (FG-4592 + Lapatinib; first compound 8 µM)
NCI-H522	0.887	0.892	0.801	0.843	0.829	0.751	0.592	0.56	0.572	0.619	–	–	–	–	–	–	–	–	–	–
HCC-15	0.65	0.601	0.536	0.554	0.681	0.709	0.722	0.685	0.388	0.616	0.8	0.703	0.76	0.427	0.65	0.883	0.706	0.852	0.871	0.944
A-427	0.649	0.611	0.741	0.725	0.717	0.454	0.472	0.453	–	0.463	0.736	0.84	0.789	–	0.632	0.975	1.05	0.943	0.953	1.03
NCI-H2228	0.569	0.411	0.548	0.475	0.489	0.619	0.581	0.662	0.368	0.39	0.497	0.506	0.28	0.28	0.229	1.46	0.778	0.84	0.844	0.864
NCI-H1734	0.409	0.465	0.444	0.454	0.401	0.703	0.659	0.662	–	0.565	0.463	0.442	0.464	–	0.427	0.947	0.886	0.915	0.973	1.02
PC-14	0.274	0.195	0.275	0.311	0.343	0.881	0.925	1.11	0.302	0.847	0.896	0.706	0.673	0.82	0.437	0.365	0.317	0.345	0.336	0.298
NCI-H1915	0.324	0.283	0.286	0.31	0.257	0.614	0.626	0.599	–	0.581	0.854	0.915	0.977	–	0.985	0.956	0.933	0.931	0.943	1.04
NCI-H1666	0.812	0.792	0.801	0.794	0.808	0.914	0.86	0.901	0.879	0.817	0.436	0.452	0.455	0.448	0.407	0.617	0.519	0.485	0.519	0.456
HCC-366	0.624	0.607	0.339	0.573	0.414	1.07	0.934	1.17	0.692	1.27	0.215	0.115	0.149	0.137	0.145	0.89	0.998	1.1	1.1	1.13
SK-MES-1	0.534	0.434	0.351	0.365	0.34	0.668	0.674	0.606	0.348	0.509	0.402	0.396	0.351	0.398	0.371	0.513	0.489	0.42	0.489	0.397
SW 1573	0.528	0.344	0.522	0.354	0.406	0.675	0.618	0.583	0.216	0.607	0.524	0.563	0.391	0.553	0.471	1.05	1.12	1.11	1.11	1.22
NCI-H661	0.983	0.825	0.874	0.827	0.835	0.81	0.753	0.63	0.799	0.647	0.376	0.406	0.414	0.349	0.363	0.446	0.462	0.578	0.473	0.403
PC-3 [JPC-3]	1.04	0.92	0.896	1.05	0.954	0.796	0.874	0.716	0.705	0.555	0.756	0.745	0.852	–	0.734	0.446	0.419	0.362	0.402	0.439
NCI-H1623	0.505	0.555	0.446	0.486	0.468	0.452	0.451	0.449	0.434	0.391	–	–	–	–	–	–	–	–	–	–
Calu-6	–	–	–	–	–	–	–	–	–	–	1.13	1.07	0.861	0.972	0.856	1.01	1	1.12	1.08	1.07
LC-2-ad	0.513	0.559	–	0.536	0.66	0.86	0.81	0.75	0.546	0.787	0.428	0.509	0.427	0.423	0.45	0.913	0.915	0.94	0.904	1.05
CAL-12T	0.378	0.424	0.406	0.361	0.365	0.764	0.635	0.675	0.631	0.683	0.448	0.392	0.537	0.413	0.396	0.646	0.599	0.492	0.647	0.667

Cell Line	relative viability (FG-4592 + Dasatinib; first compound 0.08 µM)	relative viability (FG-4592 + Dasatinib; first compound 0.253 µM)	relative viability (FG-4592 + Dasatinib; first compound 0.8 µM)	relative viability (FG-4592 + Dasatinib; first compound 2.53 µM)	relative viability (FG-4592 + Dasatinib; first compound 8 µM)	relative viability (IU1-47 + OSI-027; first compound 0.08 µM)	relative viability (IU1-47 + OSI-027; first compound 0.253 µM)	relative viability (IU1-47 + OSI-027; first compound 0.8 µM)	relative viability (IU1-47 + OSI-027; first compound 2.53 µM)	relative viability (IU1-47 + OSI-027; first compound 8 µM)	relative viability (IU1-47 + Pictilisib; first compound 0.08 µM)	relative viability (IU1-47 + Pictilisib; first compound 0.253 µM)	relative viability (IU1-47 + Pictilisib; first compound 0.8 µM)	relative viability (IU1-47 + Pictilisib; first compound 2.53 µM)	relative viability (IU1-47 + Pictilisib; first compound 8 µM)	relative viability (FG-4592 + Lapatinib; first compound 0.08 µM)	relative viability (FG-4592 + Lapatinib; first compound 0.253 µM)	relative viability (FG-4592 + Lapatinib; first compound 0.8 µM)	relative viability (FG-4592 + Lapatinib; first compound 2.53 µM)	relative viability (FG-4592 + Lapatinib; first compound 8 µM)
RERF-LC-KJ	0.91	0.701	0.739	0.836	0.678	0.596	0.586	0.565	0.36	0.567	0.538	0.659	0.41	0.489	0.595	0.793	0.816	0.86	0.899	0.725
NCI-H1650	0.304	0.361	0.281	0.295	0.342	0.502	0.438	0.645	0.521	0.412	0.634	0.587	0.682	0.295	0.27	0.637	0.704	0.544	0.677	0.78
BEN	0.323	0.348	0.262	0.365	0.305	0.294	0.302	0.296	–	0.268	0.644	0.566	0.583	0.41	0.594	0.495	0.507	0.555	0.822	0.475
EMC-BAC-2	0.374	0.361	0.274	0.311	0.296	0.392	0.368	0.374	0.38	0.362	0.547	0.51	0.545	0.572	0.489	0.853	0.866	0.808	0.731	0.842
NCI-H1299	–	–	–	–	–	–	–	–	–	–	0.893	0.881	0.749	1.05	0.911	0.969	0.941	0.981	0.954	0.988
EBC-1	–	–	–	–	–	–	–	–	–	–	0.45	0.387	0.416	0.501	0.336	0.24	0.25	0.206	0.201	0.232
NCI-H2342	0.312	0.281	0.316	0.341	0.311	0.668	0.69	0.578	0.517	0.619	–	–	–	–	–	–	–	–	–	–
ChaGo-K-1	0.584	0.577	0.516	0.542	0.592	0.485	0.535	0.589	0.41	0.489	0.753	0.758	0.62	0.457	0.43	–	–	–	–	–
HCC-44	–	–	–	–	–	0.403	0.483	0.593	0.434	0.389	0.551	0.603	0.665	0.672	0.593	0.99	0.948	0.835	0.96	0.96
A549	–	–	–	–	–	–	–	–	–	–	0.637	0.53	0.542	0.673	0.423	0.917	0.975	1.03	1.07	0.946
SW 900	0.889	0.57	0.444	0.55	0.461	0.508	0.45	0.677	0.61	0.414	–	–	–	–	–	–	–	–	–	–
IA-LM	–	–	–	–	–	–	–	–	–	–	0.333	0.374	0.306	0.394	0.348	0.675	0.78	0.66	0.711	0.567
NCI-H1703	–	–	–	–	–	–	–	–	–	–	0.254	0.255	0.218	0.32	0.25	1.11	0.881	1.11	0.966	0.936
NCI-H441	0.56	0.547	0.524	0.55	0.555	0.74	0.724	0.572	0.535	0.676	0.483	0.486	0.464	0.504	0.43	–	–	–	–	–
LCLC-103H	0.414	0.492	0.311	0.342	0.408	0.508	0.492	0.472	0.484	0.416	0.586	0.566	0.624	0.509	0.639	–	–	–	–	–
NCI-H1648	–	–	–	–	–	0.264	0.295	0.251	0.266	0.277	–	–	–	–	–	–	–	–	–	–
